Assay results as given in US20120121591A1 (priority 2009, published 2012).

Legend:
Format in all cases: cell-based
hKv1.3 = hKv1.3 (Homo sapiens, UniProt P22001); assay: cell-based; conditions: Kv1.3 (IWQ) IC50 (nM, Avg)
[1] = test system: IL-2 secretion from T cells in human whole blood; conditions: read-out: WB (IL-2) IC50 (nM, Avg)
[2] = test system: IFN-g secretion from T cells in human whole blood; conditions: read-out: WB (IFNg) IC50 (nM, Avg)

hKv1.3, sequence (P22001 whole entry): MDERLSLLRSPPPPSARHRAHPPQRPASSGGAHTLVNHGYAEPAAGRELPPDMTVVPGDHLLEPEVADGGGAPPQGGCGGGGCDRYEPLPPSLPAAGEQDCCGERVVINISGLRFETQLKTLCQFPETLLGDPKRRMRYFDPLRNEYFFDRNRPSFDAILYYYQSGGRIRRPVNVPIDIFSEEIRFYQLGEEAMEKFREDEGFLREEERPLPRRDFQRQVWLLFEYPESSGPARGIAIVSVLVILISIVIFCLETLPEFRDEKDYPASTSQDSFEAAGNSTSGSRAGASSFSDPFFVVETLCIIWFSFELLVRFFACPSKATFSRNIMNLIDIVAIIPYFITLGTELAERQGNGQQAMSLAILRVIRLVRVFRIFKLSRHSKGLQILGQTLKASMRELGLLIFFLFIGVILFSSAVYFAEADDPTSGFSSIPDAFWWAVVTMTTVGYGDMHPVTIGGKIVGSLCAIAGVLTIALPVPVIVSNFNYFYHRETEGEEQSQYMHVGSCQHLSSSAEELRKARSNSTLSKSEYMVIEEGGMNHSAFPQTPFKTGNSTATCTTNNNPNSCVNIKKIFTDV

Row | SMILES | IC50 (hKv1.3) [nM] | IC50 [1] [nM] | IC50 [2] [nM]
1 | CCCC[C@@H]1NC(=O)[C@H](CO)NC(=O)[C@H](Cc2c[nH]cn2)NC(=O)[C@H](CCCCN)NC(=O)[C@@H]2CSSC[C@@H]3NC(=O)[C@H]([C@@H](C)O)NC(=O)[C@H](CCCNC(=N)N)NC(=O)[C@H](CCCNC(=N)N)NC(=O)[C@H](CSSC[C@H](NC(=O)[C@H](CCCNC(=N)N)NC(=O)[C@H](CO)NC(=O)[C@H](CCCCN)NC(=O)[C@@H]4CCCN4C(=O)[C@H]([C@@H](C)CC)NC(=O)[C@H]([C@@H](C)O)NC(=O)[C@H](CC(=O)O)NC(=O)[C@H](CCC(=O)O)NC(=O)[C@@H](NC(=O)[C@H](CO)NC(=O)[C@@H](N)CCCNC(=N)N)CSSC[C@@H](C(N)=O)NC(=O)[C@H]([C@@H](C)O)NC(=O)CNC3=O)C(=O)N[C@@H]([C@@H](C)O)C(=O)N[C@@H](C)C(=O)N[C@@H](Cc3ccccc3)C(=O)N[C@@H](CCCCN)C(=O)N2)NC(=O)[C@H](Cc2ccccc2)NC(=O)[C@H](CO)NC(=O)[C@H](CC(C)C)NC(=O)[C@H](CCCNC(=N)N)NC(=O)[C@H](Cc2ccc(O)cc2)NC(=O)[C@H](CCCCN)NC1=O [[Glu4, Lys16, Nle21,Arg30]ShK-amide] | 0.132 | 1.18 | 1.34
2 | CCCC[C@@H]1NC(=O)[C@H](CO)NC(=O)[C@H](Cc2c[nH]cn2)NC(=O)[C@H](CCC(=O)O)NC(=O)[C@@H]2CSSC[C@@H]3NC(=O)[C@H]([C@@H](C)O)NC(=O)[C@H](CCCCN)NC(=O)[C@H](CCCNC(=N)N)NC(=O)[C@H](CSSC[C@H](NC(=O)[C@H](CCCNC(=N)N)NC(=O)[C@H](CO)NC(=O)[C@H](CCCCN)NC(=O)[C@@H]4CCCN4C(=O)[C@H]([C@@H](C)CC)NC(=O)[C@H]([C@@H](C)O)NC(=O)[C@H](CC(=O)O)NC(=O)[C@H](CCC(=O)O)NC(=O)[C@@H](NC(=O)[C@H](CO)NC(=O)[C@@H](N)CCCNC(=N)N)CSSC[C@@H](C(N)=O)NC(=O)[C@H]([C@@H](C)O)NC(=O)CNC3=O)C(=O)N[C@@H]([C@@H](C)O)C(=O)N[C@@H](C)C(=O)N[C@@H](C)C(=O)N[C@@H](CCCCN)C(=O)N2)NC(=O)[C@H](Cc2ccccc2)NC(=O)[C@H](CO)NC(=O)[C@H](CC(C)C)NC(=O)[C@H](CCCNC(=N)N)NC(=O)[C@H](Cc2ccc(O)cc2)NC(=O)[C@H](CCCCN)NC1=O [[Glu4,18,A1a15,Lys16,Nle21]ShK-amide] | 0.346 | 1.22 | 1.6
3 | CC[C@H](C)[C@@H]1NC(=O)[C@@H](NC(=O)[C@H](CO)NC(=O)[C@@H](N)CCCNC(=N)N)CSSC[C@@H](C(N)=O)NC(=O)[C@H]([C@@H](C)O)NC(=O)CNC(=O)[C@@H]2CSSC[C@@H]3NC(=O)[C@H](CCCCN)NC(=O)[C@H](Cc4ccccc4)NC(=O)[C@H](C)NC(=O)[C@H]([C@@H](C)O)NC(=O)[C@H](CSSC[C@H](NC(=O)[C@H](Cc4ccccc4)NC(=O)[C@H](Cc4ccc5ccccc5c4)NC(=O)[C@H](CC(C)C)NC(=O)[C@H](CCCNC(=N)N)NC(=O)[C@H](Cc4ccc(O)cc4)NC(=O)[C@H](CCCCN)NC(=O)[C@H](CCSC)NC(=O)[C@H](CO)NC(=O)[C@H](Cc4c[nH]cn4)NC(=O)[C@H](CCCCN)NC3=O)C(=O)N[C@@H](CCCCN)C(=O)N[C@@H](CCCCN)C(=O)N[C@@H]([C@@H](C)O)C(=O)N2)NC(=O)[C@H](CCCNC(=N)N)NC(=O)[C@H](CO)NC(=O)[C@H](CCCCN)NC(=O)[C@@H]2CCCN2C(=O)[C@H]([C@@H](C)CC)NC(=O)[C@H]([C@@H](C)O)NC(=O)[C@H](CC(=O)O)NC1=O [[Lys16,29;2-Na126]ShK-amide] | 0.762 | 0.222 | 0.148
4 | CC[C@H](C)[C@@H]1NC(=O)[C@@H](NC(=O)[C@H](CO)NC(=O)[C@@H](N)CCCNC(=N)N)CSSC[C@@H](C(=O)O)NC(=O)[C@H]([C@@H](C)O)NC(=O)[C@H](C)NC(=O)[C@@H]2CSSC[C@@H]3NC(=O)[C@H](CCC(N)=O)NC(=O)[C@H](Cc4ccccc4)NC(=O)[C@H](C)NC(=O)[C@H]([C@@H](C)O)NC(=O)[C@H](CSSC[C@H](NC(=O)[C@H](Cc4ccccc4)NC(=O)[C@H](CO)NC(=O)[C@H](CC(C)C)NC(=O)[C@H](CCCNC(=N)N)NC(=O)[C@H](Cc4ccc(O)cc4)NC(=O)[C@H](CCCCN)NC(=O)[C@H](CCSC)NC(=O)[C@H](CO)NC(=O)[C@H](Cc4c[nH]cn4)NC(=O)[C@H](CCCCN)NC3=O)C(=O)N[C@@H](CCCNC(=N)N)C(=O)N[C@@H](CCCCN)C(=O)N[C@@H]([C@@H](C)O)C(=O)N2)NC(=O)[C@H](CCCNC(=N)N)NC(=O)[C@H](CO)NC(=O)[C@H](CCCCN)NC(=O)[C@@H]2CCCN2C(=O)[C@H]([C@@H](C)CC)NC(=O)[C@H]([C@@H](C)O)NC(=O)[C@H](CC(=O)O)NC1=O [[Ala33]ShK] | 0.075 | 0.049 | 0.1
5 | CC[C@H](C)[C@@H]1NC(=O)[C@@H](NC(=O)[C@H](Cc2cccc3ccccc23)NC(=O)[C@@H](N)CCCNC(=N)N)CSSC[C@@H](C(=O)O)NC(=O)[C@H]([C@@H](C)O)NC(=O)CNC(=O)[C@@H]2CSSC[C@@H]3NC(=O)[C@H](CCC(N)=O)NC(=O)[C@H](Cc4ccccc4)NC(=O)[C@H](C)NC(=O)[C@H]([C@@H](C)O)NC(=O)[C@H](CSSC[C@H](NC(=O)[C@H](Cc4ccccc4)NC(=O)[C@H](CO)NC(=O)[C@H](CC(C)C)NC(=O)[C@H](CCCNC(=N)N)NC(=O)[C@H](Cc4ccc(O)cc4)NC(=O)[C@H](CCCCN)NC(=O)[C@H](CCSC)NC(=O)[C@H](CO)NC(=O)[C@H](Cc4c[nH]cn4)NC(=O)[C@H](CCCCN)NC3=O)C(=O)N[C@@H](CCCNC(=N)N)C(=O)N[C@@H](CCCCN)C(=O)N[C@@H]([C@@H](C)O)C(=O)N2)NC(=O)[C@H](CCCNC(=N)N)NC(=O)[C@H](CO)NC(=O)[C@H](CCCCN)NC(=O)[C@@H]2CCCN2C(=O)[C@H]([C@@H](C)CC)NC(=O)[C@H]([C@@H](C)O)NC(=O)[C@H](CC(=O)O)NC1=O [[1-Nal2]ShK] | 0.25 | 0.223 | 0.258
6 | CC[C@H](C)[C@@H]1NC(=O)[C@@H](NC(=O)[C@H](CO)NC(=O)[C@@H](N)CCCNC(=N)N)CSSC[C@@H](C(=O)O)NC(=O)[C@H]([C@@H](C)O)NC(=O)CNC(=O)[C@@H]2CSSC[C@@H]3NC(=O)[C@H](CCC(N)=O)NC(=O)[C@H](Cc4ccccc4)NC(=O)[C@H](C)NC(=O)[C@H]([C@@H](C)O)NC(=O)[C@H](CSSC[C@H](NC(=O)[C@H](Cc4ccccc4)NC(=O)[C@H](CO)NC(=O)[C@H](CC(C)C)NC(=O)[C@H](CCCNC(=N)N)NC(=O)[C@H](Cc4ccc(O)cc4)NC(=O)[C@H](CCCCN)NC(=O)[C@H](CCSC)NC(=O)[C@H](CO)NC(=O)[C@H](Cc4c[nH]cn4)NC(=O)[C@H](CCCCN)NC3=O)C(=O)N[C@@H](CCCNC(=N)N)C(=O)N[C@@H](CCCCN)C(=O)N[C@@H]([C@@H](C)O)C(=O)N2)NC(=O)[C@H](CCCNC(=N)N)NC(=O)[C@H](CO)NC(=O)[C@H](CCCCN)NC(=O)[C@@H]2CCCN2C(=O)[C@H](C)NC(=O)[C@H]([C@@H](C)O)NC(=O)[C@H](CC(=O)O)NC1=O [[Ala7]ShK] | 0.188 | 0.886 | 2.22
